Results taken from patent publication US5034391A, “Piperazinylalkyl-3(2H)-pyridazinones and the use thereof as agents lowering blood pressure” (CL Pharma Aktiengesellschaft, priority 1988, dated 1991).

Biological target: T1, alpha1 adrenoceptors (Rattus norvegicus, UniProt P15823)
T1 construct: from tissue; host or cells: rat cardiac membranes
T1 sequence (P15823 1-515): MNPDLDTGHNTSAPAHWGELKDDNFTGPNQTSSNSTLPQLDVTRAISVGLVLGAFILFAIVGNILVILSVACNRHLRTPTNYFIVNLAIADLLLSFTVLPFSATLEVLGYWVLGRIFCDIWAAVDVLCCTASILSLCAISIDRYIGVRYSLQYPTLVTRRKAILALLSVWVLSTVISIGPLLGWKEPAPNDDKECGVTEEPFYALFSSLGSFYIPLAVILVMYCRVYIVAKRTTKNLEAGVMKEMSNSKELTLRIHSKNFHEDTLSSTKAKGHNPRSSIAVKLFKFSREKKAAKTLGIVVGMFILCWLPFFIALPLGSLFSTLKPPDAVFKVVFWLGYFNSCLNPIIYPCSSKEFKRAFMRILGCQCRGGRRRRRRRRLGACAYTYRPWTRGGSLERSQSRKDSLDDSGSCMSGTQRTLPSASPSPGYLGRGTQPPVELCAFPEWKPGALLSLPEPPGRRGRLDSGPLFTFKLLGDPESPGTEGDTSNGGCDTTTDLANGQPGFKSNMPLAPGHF
Assay: Affinity for alpha1 adrenoceptors: displacement of tritiated prazosin on rat cardiac membranes
Format: binding
Settings: Ki from IC50 by Cheng and Prusoff, read-out: Inhibition constants at alpha-1-adrenoceptor (Ki)
Method: The affinity of compounds of the general formula I for alpha1 adrenoceptors was established using the method described by R. S. Williams, D. F. Dukes and […] in J. Cardiovasc. Pharmacol. 3, 522-531 (1981). In this method the competitive displacement of tritiated prazosin (2-(4-(2-furoyl)-1-piperazinyl)-4-amino-6,7-dimethoxy-quinazoline) on rat-cardiac membranes by the test substances is measured, and the IC50 (50% inhibition concentration) is determined as that concentration which brings about a 50% inhibition of the specific binding of tritiated prazosin to the alpha1 adrenoceptors in rat cardiac membranes.
The concentration-independent inhibitor constants K1 -alpha1 were determined from the IC50 values as stated by Y. Cheng and H. W.Prusoff in Biochem. Pharmacol. 22, 3099-3108 (1973).

Molecule	Ki
Cc1ccccc1N1CCN(CCNc2c(Cl)cnn(C)c2=O)CC1 [2-Methyl-5-chloro-4-((2-(4-(2-methylphenyl)piperazinyl-1)ethyl)amino)-3(2H)-pyridazinone]	1.21 nM
Cn1ncc(NCCN2CCN(c3ccccc3O)CC2)c(Cl)c1=O [2-Methyl-4-chloro-5-((2-(4-(2-hydroxyphenyl)piperazinyl-1)ethyl)amino)-3(2H)-pyridazinone]	15.4 nM
COc1ccccc1N1CCN(CCCN(C)c2c(Cl)cnn(C)c2=O)CC1 [2-Methyl-5-chloro-4-(methyl-(3-(4-(2-methoxyphenyl)piperazinyl-1)propyl)amino)-3(2H)-pyridazinone]	12.9 nM
Cc1ccccc1N1CCN(CCCNc2cnn(C)c(=O)c2Cl)CC1 [2-Methyl-4-chloro-5-((3-(4-(2-methylphenyl)piperazinyl-1)propyl)amino)-3(2H)-pyridazinone]	31.4 nM
COc1ccccc1N1CCN(CCCCNc2c(Cl)cnn(C)c2=O)CC1 [2-methyl-5-chloro-4-((4-(4-(2-methoxyphenyl)-1-piperazinyl)butyl)amino)-3(2H)-pyridazinone]	2.15 nM
CCOc1cc(C)ccc1N1CCN(CCCNc2c(Cl)cnn(C)c2=O)CC1 [2-Methyl-5-chloro-4-((3-(4-(2-ethoxy-4-methylphenyl)piperazinyl-1)propyl)amino)-3(2H)-pyridazinone]	4.99 nM
COc1ccccc1N1CCN(CCNc2ccnn(C)c2=O)CC1 [2-Methyl-4-((2-(4-(2-methoxyphenyl)piperazinyl-1)ethyl)amino)-3(2H)-pyridazinone]	15.7 nM
COc1ccccc1N1CCN(CCCCNc2cnn(C)c(=O)c2)CC1 [2-Methyl-5-((4-(4-(2-methoxyphenyl)piperazinyl-1)butyl)amino)-3(2H)-pyridazinone]	5.38 nM
Cn1ncc(Cl)c(NCCN2CCN(c3ccccc3OCc3ccccc3)CC2)c1=O [2-Methyl-5-chloro-4-((2-(4-(2-benzyloxyphenyl)piperazinyl-1)ethyl)amino)-3(2H)-pyridazinone]	2.54 nM

The remaining lines, values ahead:

Ki	Molecule
4.45 nM	Cc1ccccc1N1CCN(CCCNc2c(Cl)cnn(C)c2=O)CC1 [2-Methyl-5-chloro-4-((3-(4-(2-methylphenyl)piperazinyl-1)piperazinyl-1)propyl)amino)-3(2H)-pyridazinone]
49.3 nM	Cc1ccccc1N1CCN(CCCNc2cnn(C)c(=O)c2)CC1 [2-Methyl-4-((3-(4-(2-methylphenyl)piperazinyl-1)propyl)amino)-3(2H)-pyridazinone]
21.4 nM	Cn1nccc(NCCN2CCN(c3ccccc3F)CC2)c1=O [2-Methyl-4-((2-(4-(2-fluorophenyl)piperazinyl-1)ethyl)amino) -3(2H)-pyridazinone]
89.4 nM	2-Methyl-4-((2-(4-(2-fluorophenyl)piperazinyl-1)ethyl) amino)-3(2H)-pyridazinone
4.89 nM	Cn1ncc(Cl)c(NCCCN2CCN(c3ccccc3F)CC2)c1=O [2-Methyl-5-chloro-4-((3-(4-(2-fluorophenyl)piperazinyl-1)propyl)amino)-3(2H)-pyridazinone]
11.8 nM	COc1ccccc1N1CCN(CCCCNc2ccnn(C)c2=O)CC1 [2-Methyl-4-((4-(4-(2-methoxyphenyl)piperazinyl-1)butyl)amino)-3(2H)-pyridazinone]
3.78 nM	CCOc1cc(C)ccc1N1CCN(CCCNc2cnn(C)c(=O)c2Cl)CC1 [2-Methyl-4-chloro-5-((3-(4-(2-ethoxy-4-methylphenyl)piperazinyl-1)propyl)yamino)-3(2H)-pyridazinone]
4.33 nM	Cc1ccc(N2CCN(CCCNc3cnn(C)c(=O)c3Cl)CC2)c(O)c1 [2-Methyl-4-chloro-5-((3-(4-(2-hydroxy-4-methylphenyl)piperazinyl-1)propyl)amino)-3(2H)-pyridazinone]
42.2 nM	COc1ccccc1N1CCN(CCNc2ccn[nH]c2=O)CC1 [4-((2-(4-(2-Methoxyphenyl)piperazinyl-1)ethyl)amino)-3(2H)-pyridazinone]
